Measured values as given in patent US7041647B2, “Synthetic peptide having an ionophoric and antimicrobial activity” (Corporacion Para Investigaciones Biologicas, priority 2003, dated 2006).
No end group written: not given here.

What was measured:
[1] = test system: inner membrane of rat liver mitochondria; assay: Mitochondrial swelling in isotonic media (ionophoric activity); assay type: biochemical; conditions: pH 7.4
Method: FIG. 1 Ionophoric activity of P1 in the inner membrane of rat liver mitochondria. The mitochondria at a concentration of 0.5 mg/ml of protein were incubated in the media 125 mM KNO3, 5 mM HEPES-tris, pH 7.4 (Panel A) and 125 mM NH4NO3, 5 mM HEPES-tris, pH 7.4 (Panel B), both media were supplemented with 2.5 μM rotenone and 1 μM oligomycin (RO), added just after the mitochondria. The peptide P1 was added at the following final concentrations: 1.8 μM of P1 (curves a); 0.36 μM of P1 (curves b); 0.18 μM of P1 (curves c); 0.18 μM of P1 plus 2.5 mM of succinate (curves d); 0.12 μM of valinomycin (curve e), and 2 μM of FCCP, (curve f). In Panel C, the permeability of the inner mitochondrial membrane induced by the peptide P1 was evaluated for the following cations: H^+, K^+, Na^+, and Tris^+. […]
The mitochondria were isolated and prepared as described above. […] The mitochondrial swelling was spectrophotometrically monitored at 540 nm (Turner Spectrophotometer, model SP-850, USA, modified with a magnetic mini-stirrer). The curves were recorded in a graphical recorder (Linseis model L250E, USA), scanned and then processed in the program Adobe Photoshop V5.0. […]

human red blood cells = assay: Hemolytic activity in human erythrocytes; assay type: cell-based; conditions: for Percentage of hemolysis, X ± SD: hematocryte 0.5%, 1 h room temperature
Method: FIG. 5 Effect of P1 in human red blood cells; Human red blood cells were resuspended to a hematocryte of 0.5% in the isotonic solutions indicated in materials and methods. The peptide P1 was added at different concentrations to the cellular suspensions and incubated for 1 hour at room temperature. The supernatants were obtained by centrifugation of the suspensions at 10000 rpm for 5 min at 4° C. (International Equipment Company IEC, Centra MP4R; rotor 851), the absorbance of the supernatants was registered at 415 nm with a spectrophotometer (BIORAD). The results were expressed as percentage of hemolysis relative to the maximum hemolysis (erythrocytes hemolysed in 0.01% Tween-20).
FIG. 6 The hemolysis caused by P1 in the erythrocytes decreases with an increase in the hematocryte; human red blood cells were resuspended at different hematocrytes: 0.5%, 2.5% and 10% in 150 mM NaCl, 5 mM KCl, 5 mM Glucose, 10 mM HEPES-tris, pH 7.4. Peptide P1 was added at different concentrations in the cellular suspension and incubated during 1 h at room temperature. The supernatants were obtained by centrifugation at 10000 rpm for 5 min at 4° C. and the absorbance at 415 nm was determined with a BIORAD spectrophotometer. The results were expressed as percentage of hemolysis relative to the maximum hemolysis (erythrocytes lysed in 0.01% Tween-20).
The hemolytic activity of peptide P1 was determined in heparinized human red blood cells from a volunteer (final concentration of heparin 20.4 U/ml), and washed three times in 150 mM NaCl, 9 mM Na2PO4, pH 7.3, at room temperature. The red blood cells were resuspended to an hematocryte of 0.5% in isotonic solutions 150 mM NaCl, 5 mM KCl, 5 mM Glucose, 10 mM HEPES-tris, pH 7.4; 155 mM KCl, 5 mM Glucose, 10 mM HEPES-tris, pH 7.4; 300 mM saccharose, 5 mM KCl, 5 mM Glucose, 10 mM HEPES-tris, pH 7.4; 150 mM polyethyleneglycol-1500 (PEG-1500), 5 mM KCl, 5 mM Glucose, 10 mM HEPES-tris, pH 7.4. […] The supernatants were recovered by centrifugation of the cellular suspension at 10000 rpm for 5 min at 4° C. and the absorbance at 415 nm was determined in a BIORAD spectrophotometer. The averages and standard deviations were calculated and the data were introduced to the program SigmaPlot V4.0 in order to generate the corresponding graphs (FIGS. 3 and 4).

[2] = Solubility in aqueous solutions; assay type: physicochemical
Text: The peptides were synthesized by the method of solid phase synthesis (Merrifield B. 1963. Solid Phase Peptide Synthesis, Journal American Chemical Society. 85: 2149–2154; and Houghten R. A. 1985. General methods for the rapid solid phase synthesis of large numbers of peptides: specificity of antigen antibody interaction at the level of individual amino acids. Proc. Natl. Acad. Sci. USA. 82: 5131–5135.) under the methods of good manufacture practices (GMP). A resin p-methyl benzidrylamine (MBHA) (0.7 meq/g), t-boc amino acids (Bachem, USA) and the process of high-low cleavage were used in the synthesis. (Andreu D, Merrifield RB, Steiner H, Boman HG. 1983. Solid-phase synthesis of Cecropin A and Related Peptides. Proc. Natl. Acad. Sci USA 80: 6475–6479.). Once synthesized, the peptides were extracted with 10% acetic acid in water. The peptides were purified by high pressure liquid chromatography (HPLC), in a reverse phase column, and they were analyzed by means of mass spectrometry (Maldi-Tof). The peptides were lyophilized and kept in powder at 4° C. until its use.

[3] = test system: Escherichia coli (ATCC 25922); conditions: ATCC 25922, 2 h, 7.1 μM
[4] = test system: Staphylococcus aureus (ATCC 25923); conditions: ATCC 25923, 2 h, 7.1 μM
[5] = test system: Streptococcus pneumoniae (ATCC 49619); conditions: ATCC 49619, 2 h, 7.1 μM
[6] = test system: Bacteroides fragilis (ATCC 25285); conditions: ATCC 25285, 2 h, 7.1 μM
[7] = test system: Clostridium perfringens (ATCC 13124); conditions: ATCC 13124, 2 h, 7.1 μM

With `N#CC(C#N)=NNc1ccc(OC(F)(F)F)cc1` [FCCP, carbonyl-cyanide-p-trifluoromethoxy phenylhydrazone] the “Speed of mitochondrial swelling (slope)” value ([1]; 2 μM FCCP, medium 125 mM NH4NO3, 5 mM HEPES-tris, FIG. 1 Panel B curve f) was 3.5.
For `CC(C)[C@@H]1NC(=O)[C@H](C)OC(=O)[C@@H](C(C)C)NC(=O)[C@@H](C(C)C)OC(=O)[C@H](C(C)C)NC(=O)[C@H](C)OC(=O)[C@@H](C(C)C)NC(=O)[C@@H](C(C)C)OC(=O)[C@H](C(C)C)NC(=O)[C@H](C)OC(=O)[C@@H](C(C)C)NC(=O)[C@@H](C(C)C)OC1=O` [valinomycin], the “Rate of mitochondrial swelling (slope)” value ([1]; 0.12 μM valinomycin, medium 125 mM KNO3, 5 mM HEPES-tris, FIG. 1 Panel A curve e) was 1.4.
For “VAPIAKYLATALAKWALKQGFAKLKS-NH2 (C-terminus assumed) [P1]”, the “Percentage of hemolysis, X ± SD” value (human red blood cells; 0.36 μM P1, isotonic medium KCl 150 mM) was 17.25 ± 1.05%, the “Percentage of hemolysis, X ± SD” value (human red blood cells; 0.36 μM P1, isotonic medium NaCl 150 mM) was 3.75 ± 0.05% and the “Percentage of hemolysis, X ± SD” value (human red blood cells; 0.36 μM P1, isotonic medium PEG-1500 150 mM) was 0.25 ± 0.07%. For the same compound, the “Percentage of hemolysis, X ± SD” value (human red blood cells; 0.36 μM P1, isotonic medium Saccharose 150 mM) was 57.5 ± 0.73%, the “Permeability order of hemolytic activity by isotonic medium” value (human red blood cells; 0.36 μM peptide, order disappears at 3.6 μM) was “saccharose>KCl>NaCl” and the “Percentage of hemolysis, X ± SD” value (human red blood cells; 3.6 μM P1, isotonic medium KCl 150 mM) was 64.25 ± 1.23%. For the same compound, the “Percentage of hemolysis, X ± SD” value (human red blood cells; 3.6 μM P1, isotonic medium NaCl 150 mM) was 59.25 ± 1.15%, the “Percentage of hemolysis, X ± SD” value (human red blood cells; 3.6 μM P1, isotonic medium PEG-1500 150 mM) was 2.75 ± 0.3% and the “Percentage of hemolysis, X ± SD” value (human red blood cells; 3.6 μM P1, isotonic medium Saccharose 150 mM) was 75.5 ± 10.38%. For the same compound, the “Hemolytic activity with increased hematocryte” value (human red blood cells; hematocryte increased at 10%, NaCl medium) was “decreases dramatically”, the “Hemolytic activity in a physiological solution” value (human red blood cells; hematocryte is high) was “insignificant” and the “Hemolytic activity (in words)” value (human red blood cells; isotonic medium PEG-1500) was “does not show hemolytic activity”. For the same compound, the “Solubility in aqueous solutions” value [2] was “highly soluble”, the “% of growth inhibition” value [3] was 100% and the “% of growth inhibition” value [4] was 100%. For the same compound, the “% of growth inhibition” value [5] was 100%, the “% of growth inhibition” value [6] was 100% and the “% of growth inhibition” value [7] was 100%.
